From patent publication EP1092427B1, “Use of a peptide avoiding skin intolerance reactions, especially in cosmetic compositions” (L'ORÉAL, priority 1999, dated 2007) come the findings set out here.

Assay [1] relates to souris femelles Balb/C. In words: TNCB contact hypersensitivity in mice, peptide applied topically in a water-in-oil cream (ear swelling). The class given is in vivo. The note with it: peptide in water-in-oil cream applied on the zone to be sensitised 2 h before sensitisation; measured 24 h after challenge; positive controls 7×10^-2 mm. As for the experimental part: (§1) L'étude est effectuée sur des souris femelles Balb/C âgées de 7 à 10 semaines.
(§2) La réaction de sensibilisation consiste à appliquer au pinceau 100 µl d'une solution à 0,15 % de TNCB dans un mélange acétone-huile d'olive (4:1) sur la peau rasée de l'abdomen des souris.
(§3) La réaction déclenchante est réalisée 7 jours après la réaction de sensibilisation. Cette réaction déclenchante consiste à appliquer sur les deux faces d'une oreille 10 microlitres d'une solution à 0,8 % de TNCB dans un véhicule constitué par le mélange acétone-huile d'olive déjà mentionné ci-dessus.
(§4) Sur l'autre oreille, on applique, pour comparaison, uniquement ce mélange d'acétone et d'huile d'olive.
(§5) On évalue l'intensité d'une éventuelle réaction d'hypersensibilité de contact par estimation de l'importance de l'oedème de l'oreille traitée par le TNCB, en comparaison avec l'oreille traitée par le seul véhicule. Pour cela, on mesure et compare l'épaisseur des oreilles à l'aide d'une vis micrométrique. Cette mesure est effectuée 24 heures après la réaction déclenchante.
On opère comme en a) ci-dessus, mais le peptide, incorporé dans une crème de type eau-dans-l'huile, est appliqué sur la zone à sensibiliser 2 heures avant la sensibilisation.

Assay [2] has as its system souris femelles Balb/C. Description: TNCB contact hypersensitivity in mice, peptide injected intravenously before sensitisation (ear swelling). In kind it is in vivo. The method, then:
as §1
On injecte une dose de 1,5 µg du peptide étudié (en solution dans du tampon PBS contenant 0,1 % de sérum de souris) dans une veine de la queue des souris 2 heures avant la réaction de sensibilisation.
as §2, §3, §4, §5
On applique également le TNCB sur l'oreille de souris témoins n'ayant pas été préalablement sensibilisée (témoins négatifs). […]

Assay [3] deals with patients volontaires. In words: Topical effect in human volunteers with nickel contact allergy (nickel sulfate patch test). The class given is in vivo, homme. The note with it: out of 14 nickel-sensitised persons; cream with 100 µM peptide under occlusive dressing on back skin 2 h before 5 % nickel sulfate patch; read 24 h later. As for the experimental part: Cette étude a été effectuée sur des patients volontaires âgés de 18 à 65 ans, chez lesquels une allergie de contact au nickel était suspectée. Ces patients étaient exempts d'autres maladies cutanées, et les résultats de cette étude montrent qu'ils n'avaient pas d'allergie aux constituants de la crème utilisée comme véhicule.
Au jour 0, on applique avec un pansement occlusif, sur des zones de la peau du dos, d'une part une crème contenant 100 µM du peptide de formule II, et d'autre part la crème seule, sans peptide, utilisée comme placebo.
Deux heures plus tard, on applique sur les mêmes zones de la peau, et aussi sur une zone adjacente non prétraitée, des patchs imprégnés de vaseline contenant du sulfate de nickel à une concentration de 5 %.
24 heures plus tard, on examine les patients. Ceux qui ont développé une réaction d'hypersensibilité de contact sur la zone traitée par le placebo (et aussi sur la zone adjacente n'ayant reçu que l'application de sel de nickel), et qui sont donc des personnes qui étaient déjà sensibilisées au nickel, sont au nombre de 14. Sur ces 14 personnes, 7 n'ont développé aucune réaction d'hypersensibilité de contact sur la zone traitée par le peptide.

The subject of assay [4] is souris femelles Balb/C. Description: TNCB contact hypersensitivity in mice after a second sensitisation (tolerance test, ear swelling). The class given is in vivo. The text has this:
14 jours après la fin de l'expérience décrite en a) ci-dessus, on soumet les mêmes souris à une nouvelle réaction de sensibilisation sur la peau rasée du dos, comme décrit en a).
7 jours plus tard, on effectue le test de déclenchement par application du TNCB sur l'oreille, et 24 heures plus tard, on mesure le degré de gonflement de l'oreille.
Cette seconde expérience a pour but de faire une distinction entre une éventuelle immunosuppression temporaire aspécifique et une tolérance immunologique spécifique.

Non-standard residues stand in square brackets, D forms with d. Residues, ends and D or L forms follow the SMILES beside them.

As for `CC(=O)N[C@H](CCCCN)C(=O)N1CCC[C@@H]1C(=O)N[C@@H](C(N)=O)C(C)C` [peptide de formule II, Ac-D-Lys-D-Pro-D-Val-NH2] (Ac-[dK]-[dP]-[dV]-NH2), the “augmentation de l'épaisseur de l'oreille” value is given as 3×10^-2 mm in assay [1] and ~2,5×10^-2 mm in assay [2] (1,5 µg peptide i.v. (tail vein) 2 h before sensitisation with 0,15 % TNCB, challenge day 7 with 0,8 % TNCB on ear, measured 24 h after challenge, ^-2 mm, negative controls about 1×10^-2 mm). Further, the “réaction d'hypersensibilité de contact (result in words)” value in assay [2] (1,5 µg peptide i.v. 2 h before TNCB sensitisation) is “réduit fortement la réaction d'hypersensibilité de contact”. In addition, the “personnes n'ayant développé aucune réaction d'hypersensibilité de contact sur la zone traitée par le peptide” value in assay [3] is on record as 7. Also, the “hypersensibilité de contact après une seconde dose sensibilisante de TNCB (result in words)” value in assay [4] (mice treated with peptide before the first sensitisation only) is on record as “n'ont pas développé une hypersensibilité de contact”. Moreover, in assay [4] (same mice re-sensitised with TNCB on the back 14 days after first experiment, no new peptide dose, challenge 7 days later, measured 24 h later, positive controls about 14×10^-2 mm, negative controls about 3,5×10^-2 mm), the “degré de gonflement de l'oreille” value is reported as ~3,5×10^-2 mm.
